Publication PMC4823954, “From fighting depression to conquering tumors: a novel tricyclic thiazepine compound as a tubulin polymerization inhibitor” (Cell Death & Disease, 2016)

Assays:
Test in all cases: KINOMEscan
Format in all cases: binding
Details in all cases: read-out: % Ctrl
[1] = biological target: T1, ABL1(T315I)-nonphosphorylated (Homo sapiens, UniProt P00519, T315I)
T1 construct: purchased DiscoveRx KINOMEscan

TAOK1 = biological target: T2, TAOK1 (Homo sapiens, UniProt Q7L7X3)
T2 construct: purchased DiscoveRx KINOMEscan
How it was run: (§1)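 Competition binding panel of 442 non-mutant kinases: test compound at 5 and 10 μM competed with an active-site-directed ligand for 1 h with shaking. Bound kinase was eluted with 0.5 μM ligand and quantified by qPCR; %Ctrl = (compound − positive control)/(DMSO − positive control) × 100, lower meaning tighter binding.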

BRSK2 = biological target: T3, BRSK2 (Homo sapiens, UniProt Q8IWQ3)
T3 construct: purchased DiscoveRx KINOMEscan
How it was run: as §1

MST1 = biological target: T4, MST1 (Homo sapiens, UniProt Q13043)
T4 construct: purchased DiscoveRx KINOMEscan
How it was run: as §1

YES = biological target: T5, YES (Homo sapiens, UniProt P07947)
T5 construct: purchased DiscoveRx KINOMEscan
How it was run: as §1

TRKA = biological target: T6, TRKA (Homo sapiens, UniProt P04629)
T6 construct: purchased DiscoveRx KINOMEscan
How it was run: as §1

PRKR = biological target: T7, PRKR (Homo sapiens, UniProt P19525)
T7 construct: purchased DiscoveRx KINOMEscan
How it was run: as §1

MEK3 = biological target: T8, MEK3 (Homo sapiens, UniProt P46734)
T8 construct: purchased DiscoveRx KINOMEscan
How it was run: as §1

MAP3K15 = biological target: T9, MAP3K15 (Homo sapiens, UniProt Q6ZN16)
T9 construct: purchased DiscoveRx KINOMEscan
How it was run: as §1

TRPM6 = biological target: T10, TRPM6 (Homo sapiens, UniProt Q9BX84)
T10 construct: purchased DiscoveRx KINOMEscan
How it was run: as §1

[2] = biological target: T11, JAK2(JH1domain-catalytic) (Homo sapiens, UniProt O60674)
T11 construct: JAK2(JH1domain-catalytic); purchased DiscoveRx KINOMEscan
How it was run: as §1

DRAK1 = biological target: T12, DRAK1 (Homo sapiens, UniProt Q9UEE5)
T12 construct: purchased DiscoveRx KINOMEscan
How it was run: as §1

PRKX = biological target: T13, PRKX (Homo sapiens, UniProt P51817)
T13 construct: purchased DiscoveRx KINOMEscan
How it was run: as §1

[3] = biological target: T14, RSK3(Kin.Dom.1-N-terminal) (Homo sapiens, UniProt Q15349)
T14 construct: RSK3(Kin.Dom.1-N-terminal); purchased DiscoveRx KINOMEscan
How it was run: as §1

EPHA8 = biological target: T15, EPHA8 (Homo sapiens, UniProt P29322)
T15 construct: purchased DiscoveRx KINOMEscan
How it was run: as §1

PIK3C2G = biological target: T16, PIK3C2G (Homo sapiens, UniProt O75747)
T16 construct: purchased DiscoveRx KINOMEscan
How it was run: as §1

GRK7 = biological target: T17, GRK7 (Homo sapiens, UniProt Q8WTQ7)
T17 construct: purchased DiscoveRx KINOMEscan
How it was run: as §1

CDK5 = biological target: T18, CDK5 (Homo sapiens, UniProt Q00535)
T18 construct: purchased DiscoveRx KINOMEscan
How it was run: as §1

SBK1 = biological target: T19, SBK1 (Homo sapiens, UniProt Q52WX2)
T19 construct: purchased DiscoveRx KINOMEscan
How it was run: as §1

EGFR(S752-I759del) = biological target: T20, EGFR(S752-I759del) (Homo sapiens, UniProt P00533, DEL752-759)
T20 construct: purchased DiscoveRx KINOMEscan

FGR = biological target: T21, FGR (Homo sapiens, UniProt P09769)
T21 construct: purchased DiscoveRx KINOMEscan
How it was run: as §1

CSNK1E = biological target: T22, CSNK1E (Homo sapiens, UniProt P49674)
T22 construct: purchased DiscoveRx KINOMEscan
How it was run: as §1

PAK4 = biological target: T23, PAK4 (Homo sapiens, UniProt O96013)
T23 construct: purchased DiscoveRx KINOMEscan
How it was run: as §1

[4] = biological target: RPS6KA4(Kin.Dom.2-C-terminal) (Homo sapiens, UniProt O75676)
How it was run: as §1

NDR1 = biological target: T24, NDR1 (Homo sapiens, UniProt Q15208)
T24 construct: purchased DiscoveRx KINOMEscan
How it was run: as §1

LATS2 = biological target: T25, LATS2 (Homo sapiens, UniProt Q9NRM7)
T25 construct: purchased DiscoveRx KINOMEscan
How it was run: as §1

RIOK3 = biological target: T26, RIOK3 (Homo sapiens, UniProt O14730)
T26 construct: purchased DiscoveRx KINOMEscan
How it was run: as §1

IKK-epsilon = biological target: T27, IKK-epsilon (Homo sapiens, UniProt Q14164)
T27 construct: purchased DiscoveRx KINOMEscan
How it was run: as §1

ZAP70 = biological target: T28, ZAP70 (Homo sapiens, UniProt P43403)
T28 construct: purchased DiscoveRx KINOMEscan
How it was run: as §1

T26 sequence (O14730 whole entry): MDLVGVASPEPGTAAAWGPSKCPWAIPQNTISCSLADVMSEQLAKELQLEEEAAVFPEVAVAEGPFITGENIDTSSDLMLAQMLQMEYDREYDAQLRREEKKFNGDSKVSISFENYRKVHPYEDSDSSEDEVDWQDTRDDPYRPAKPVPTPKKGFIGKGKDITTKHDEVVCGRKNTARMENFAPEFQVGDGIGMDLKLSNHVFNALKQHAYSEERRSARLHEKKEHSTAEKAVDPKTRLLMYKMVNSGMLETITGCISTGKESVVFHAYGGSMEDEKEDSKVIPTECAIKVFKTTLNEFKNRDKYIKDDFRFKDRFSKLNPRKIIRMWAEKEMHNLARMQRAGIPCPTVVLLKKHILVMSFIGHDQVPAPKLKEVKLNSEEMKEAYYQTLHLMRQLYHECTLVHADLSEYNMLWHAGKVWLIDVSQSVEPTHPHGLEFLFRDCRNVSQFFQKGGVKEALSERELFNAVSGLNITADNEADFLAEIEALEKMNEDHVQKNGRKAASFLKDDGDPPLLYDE
T3 sequence (Q8IWQ3 whole entry): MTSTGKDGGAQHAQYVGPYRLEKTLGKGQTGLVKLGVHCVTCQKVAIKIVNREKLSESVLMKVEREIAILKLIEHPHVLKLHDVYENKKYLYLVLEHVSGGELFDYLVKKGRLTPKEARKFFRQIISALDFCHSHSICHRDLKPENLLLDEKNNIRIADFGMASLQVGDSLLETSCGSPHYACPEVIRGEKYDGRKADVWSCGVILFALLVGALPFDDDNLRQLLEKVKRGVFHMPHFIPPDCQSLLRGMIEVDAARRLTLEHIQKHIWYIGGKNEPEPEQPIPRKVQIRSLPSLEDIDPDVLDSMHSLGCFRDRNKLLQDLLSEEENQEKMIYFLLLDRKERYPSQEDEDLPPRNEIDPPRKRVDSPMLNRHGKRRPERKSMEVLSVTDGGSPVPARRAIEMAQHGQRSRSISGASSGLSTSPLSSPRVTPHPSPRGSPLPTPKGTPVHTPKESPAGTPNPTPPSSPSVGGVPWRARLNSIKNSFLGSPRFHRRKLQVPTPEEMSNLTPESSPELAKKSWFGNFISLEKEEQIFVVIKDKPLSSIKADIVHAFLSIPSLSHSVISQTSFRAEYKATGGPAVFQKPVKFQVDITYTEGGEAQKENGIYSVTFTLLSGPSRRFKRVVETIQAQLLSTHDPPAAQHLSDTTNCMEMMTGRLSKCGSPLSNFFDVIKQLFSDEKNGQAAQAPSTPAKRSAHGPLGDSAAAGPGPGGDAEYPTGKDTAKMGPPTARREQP
T9 sequence (Q6ZN16 whole entry): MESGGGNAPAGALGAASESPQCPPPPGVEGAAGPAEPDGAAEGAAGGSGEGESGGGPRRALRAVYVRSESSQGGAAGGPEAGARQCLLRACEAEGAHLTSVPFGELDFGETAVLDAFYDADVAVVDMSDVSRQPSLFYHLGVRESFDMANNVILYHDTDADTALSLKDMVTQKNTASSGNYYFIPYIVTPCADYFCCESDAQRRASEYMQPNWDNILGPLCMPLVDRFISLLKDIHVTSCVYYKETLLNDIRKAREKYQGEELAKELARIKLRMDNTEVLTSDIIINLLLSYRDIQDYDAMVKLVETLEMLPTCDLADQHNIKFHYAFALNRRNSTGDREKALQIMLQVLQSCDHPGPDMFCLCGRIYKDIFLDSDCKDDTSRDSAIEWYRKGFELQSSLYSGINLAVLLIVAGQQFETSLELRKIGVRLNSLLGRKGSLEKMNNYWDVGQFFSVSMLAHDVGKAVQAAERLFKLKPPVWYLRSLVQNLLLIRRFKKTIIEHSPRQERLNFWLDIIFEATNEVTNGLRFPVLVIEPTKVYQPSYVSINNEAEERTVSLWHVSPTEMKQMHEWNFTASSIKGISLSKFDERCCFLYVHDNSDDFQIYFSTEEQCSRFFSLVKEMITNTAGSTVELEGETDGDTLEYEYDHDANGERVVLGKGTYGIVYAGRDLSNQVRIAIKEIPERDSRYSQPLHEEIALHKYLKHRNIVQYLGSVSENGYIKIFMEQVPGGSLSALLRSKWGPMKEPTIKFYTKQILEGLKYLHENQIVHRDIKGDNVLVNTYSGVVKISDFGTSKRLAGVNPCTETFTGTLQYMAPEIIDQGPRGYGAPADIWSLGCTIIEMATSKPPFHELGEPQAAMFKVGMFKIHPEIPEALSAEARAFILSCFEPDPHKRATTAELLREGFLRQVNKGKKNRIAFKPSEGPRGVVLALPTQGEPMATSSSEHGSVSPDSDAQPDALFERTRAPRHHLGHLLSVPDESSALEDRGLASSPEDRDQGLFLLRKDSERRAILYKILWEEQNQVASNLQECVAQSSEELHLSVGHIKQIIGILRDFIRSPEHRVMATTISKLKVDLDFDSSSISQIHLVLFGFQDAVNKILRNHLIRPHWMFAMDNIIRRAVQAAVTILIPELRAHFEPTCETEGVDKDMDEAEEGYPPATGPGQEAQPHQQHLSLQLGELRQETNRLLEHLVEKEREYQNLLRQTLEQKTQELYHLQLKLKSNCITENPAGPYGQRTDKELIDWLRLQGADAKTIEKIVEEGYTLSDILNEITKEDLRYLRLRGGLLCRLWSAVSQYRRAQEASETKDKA
T14 sequence (Q15349 1-388 limits assumed): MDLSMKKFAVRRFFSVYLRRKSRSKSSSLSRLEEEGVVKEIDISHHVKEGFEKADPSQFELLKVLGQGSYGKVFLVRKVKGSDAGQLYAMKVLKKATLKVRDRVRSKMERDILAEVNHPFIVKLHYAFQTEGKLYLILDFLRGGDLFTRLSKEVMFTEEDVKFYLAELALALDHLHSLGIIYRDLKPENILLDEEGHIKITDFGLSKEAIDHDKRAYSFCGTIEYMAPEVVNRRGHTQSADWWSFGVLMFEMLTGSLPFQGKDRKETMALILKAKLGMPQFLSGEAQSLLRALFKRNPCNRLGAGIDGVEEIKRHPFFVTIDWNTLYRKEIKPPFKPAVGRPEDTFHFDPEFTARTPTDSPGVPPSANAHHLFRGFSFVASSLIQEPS
T22 sequence (P49674 whole entry): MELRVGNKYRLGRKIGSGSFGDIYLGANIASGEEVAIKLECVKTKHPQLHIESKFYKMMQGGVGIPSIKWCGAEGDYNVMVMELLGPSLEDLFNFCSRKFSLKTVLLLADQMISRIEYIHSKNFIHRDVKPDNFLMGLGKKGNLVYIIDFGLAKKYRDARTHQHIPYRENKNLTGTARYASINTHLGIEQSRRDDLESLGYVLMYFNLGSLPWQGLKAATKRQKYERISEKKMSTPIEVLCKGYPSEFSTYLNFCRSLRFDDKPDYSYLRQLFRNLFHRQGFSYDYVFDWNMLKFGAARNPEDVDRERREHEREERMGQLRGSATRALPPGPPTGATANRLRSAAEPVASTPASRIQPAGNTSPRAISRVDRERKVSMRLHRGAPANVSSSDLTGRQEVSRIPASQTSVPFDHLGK
T16 sequence (O75747 whole entry): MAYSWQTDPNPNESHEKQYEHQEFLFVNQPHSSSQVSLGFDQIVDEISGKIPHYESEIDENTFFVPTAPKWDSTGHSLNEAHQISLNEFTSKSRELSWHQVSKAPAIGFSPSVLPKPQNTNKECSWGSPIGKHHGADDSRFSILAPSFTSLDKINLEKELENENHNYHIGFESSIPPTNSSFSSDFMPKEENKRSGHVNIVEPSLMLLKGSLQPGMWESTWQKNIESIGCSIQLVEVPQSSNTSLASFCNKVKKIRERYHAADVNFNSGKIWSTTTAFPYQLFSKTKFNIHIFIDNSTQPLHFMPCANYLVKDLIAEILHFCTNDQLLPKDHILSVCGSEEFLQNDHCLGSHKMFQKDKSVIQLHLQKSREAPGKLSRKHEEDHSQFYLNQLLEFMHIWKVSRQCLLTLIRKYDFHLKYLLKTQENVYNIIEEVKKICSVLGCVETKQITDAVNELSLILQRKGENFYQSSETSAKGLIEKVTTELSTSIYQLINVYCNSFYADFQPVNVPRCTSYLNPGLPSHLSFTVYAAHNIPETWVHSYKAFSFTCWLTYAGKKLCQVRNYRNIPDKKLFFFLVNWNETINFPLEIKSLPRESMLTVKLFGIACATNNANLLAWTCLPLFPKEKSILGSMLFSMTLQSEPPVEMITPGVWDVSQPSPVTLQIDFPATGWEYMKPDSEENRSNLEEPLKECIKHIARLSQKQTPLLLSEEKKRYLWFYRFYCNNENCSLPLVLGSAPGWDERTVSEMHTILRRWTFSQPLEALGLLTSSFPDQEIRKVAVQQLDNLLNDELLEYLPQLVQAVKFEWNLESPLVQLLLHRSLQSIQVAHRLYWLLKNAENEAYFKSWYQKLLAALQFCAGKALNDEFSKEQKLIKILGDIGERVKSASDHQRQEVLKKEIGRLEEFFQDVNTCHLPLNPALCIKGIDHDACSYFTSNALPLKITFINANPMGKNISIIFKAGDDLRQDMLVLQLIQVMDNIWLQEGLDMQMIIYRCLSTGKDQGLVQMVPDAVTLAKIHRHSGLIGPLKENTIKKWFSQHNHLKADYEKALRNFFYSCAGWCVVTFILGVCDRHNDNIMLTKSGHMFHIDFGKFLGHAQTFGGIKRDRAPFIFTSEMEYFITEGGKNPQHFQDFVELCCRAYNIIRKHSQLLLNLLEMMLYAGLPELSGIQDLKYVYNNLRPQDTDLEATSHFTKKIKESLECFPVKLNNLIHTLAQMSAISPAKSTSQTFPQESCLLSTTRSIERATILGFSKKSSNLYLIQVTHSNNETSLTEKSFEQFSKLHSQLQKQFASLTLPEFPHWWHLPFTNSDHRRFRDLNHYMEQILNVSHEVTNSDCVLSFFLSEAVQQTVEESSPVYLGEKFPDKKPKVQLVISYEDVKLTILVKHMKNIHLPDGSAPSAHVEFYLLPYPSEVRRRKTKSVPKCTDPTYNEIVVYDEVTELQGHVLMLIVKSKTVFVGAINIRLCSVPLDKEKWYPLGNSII

Compound: Cc1ccc(C2=Nc3cccnc3S(=O)(=O)c3ccccc32)cc1 [TBPT, 6-(p-tolyl)benzo[f] pyrido[2,3-b][1,4] thiazepine 11,11-dioxide]
- remaining binding at 5 µM ([1]; 5 μM): 100%
- remaining binding at 10 µM ([1]; 10 μM): 100%
- remaining binding at 5 µM (TAOK1; 5 μM): 100%
- remaining binding at 10 µM (TAOK1; 10 μM): 100%
- remaining binding at 5 µM (BRSK2; 5 μM): 100%
- remaining binding at 10 µM (BRSK2; 10 μM): 100%
- remaining binding at 5 µM (MST1; 5 μM): 93%
- remaining binding at 10 µM (MST1; 10 μM): 100%
- remaining binding at 5 µM (YES; 5 μM): 100%
- remaining binding at 10 µM (YES; 10 μM): 100%
- remaining binding at 5 µM (TRKA; 5 μM): 100%
- remaining binding at 10 µM (TRKA; 10 μM): 97%
- remaining binding at 5 µM (PRKR; 5 μM): 97%
- remaining binding at 10 µM (PRKR; 10 μM): 90%
- remaining binding at 5 µM (MEK3; 5 μM): 100%
- remaining binding at 10 µM (MEK3; 10 μM): 100%
- remaining binding at 5 µM (MAP3K15; 5 μM): 100%
- remaining binding at 10 µM (MAP3K15; 10 μM): 100%
- remaining binding at 5 µM (TRPM6; 5 μM): 100%
- remaining binding at 10 µM (TRPM6; 10 μM): 85%
- remaining binding at 5 µM ([2]; 5 μM): 84%
- remaining binding at 10 µM ([2]; 10 μM): 98%
- remaining binding at 5 µM (DRAK1; 5 μM): 94%
- remaining binding at 10 µM (DRAK1; 10 μM): 92%
- remaining binding at 5 µM (PRKX; 5 μM): 92%
- remaining binding at 10 µM (PRKX; 10 μM): 70%
- remaining binding at 5 µM ([3]; 5 μM): 100%
- remaining binding at 10 µM ([3]; 10 μM): 82%
- remaining binding at 5 µM (EPHA8; 5 μM): 96%
- remaining binding at 10 µM (EPHA8; 10 μM): 93%
- remaining binding at 5 µM (PIK3C2G; 5 μM): 100%
- remaining binding at 10 µM (PIK3C2G; 10 μM): 100%
- remaining binding at 5 µM (GRK7; 5 μM): 100%
- remaining binding at 10 µM (GRK7; 10 μM): 100%
- remaining binding at 5 µM (CDK5; 5 μM): 85%
- remaining binding at 10 µM (CDK5; 10 μM): 98%
- remaining binding at 5 µM (SBK1; 5 μM): 100%
- remaining binding at 10 µM (SBK1; 10 μM): 85%
- remaining binding at 5 µM (EGFR(S752-I759del); 5 μM): 79%
- remaining binding at 10 µM (EGFR(S752-I759del); 10 μM): 100%
- remaining binding at 5 µM (FGR; 5 μM): 97%
- remaining binding at 10 µM (FGR; 10 μM): 73%
- remaining binding at 5 µM (CSNK1E; 5 μM): 100%
- remaining binding at 10 µM (CSNK1E; 10 μM): 96%
- remaining binding at 5 µM (PAK4; 5 μM): 100%
- remaining binding at 10 µM (PAK4; 10 μM): 100%
- remaining binding at 5 µM ([4]; 5 μM): 100%
- remaining binding at 10 µM ([4]; 10 μM): 90%
- remaining binding at 5 µM (NDR1; 5 μM): 100%
- remaining binding at 10 µM (NDR1; 10 μM): 87%
- remaining binding at 5 µM (LATS2; 5 μM): 100%
- remaining binding at 10 µM (LATS2; 10 μM): 100%
- remaining binding at 5 µM (RIOK3; 5 μM): 100%
- remaining binding at 10 µM (RIOK3; 10 μM): 100%
- remaining binding at 5 µM (IKK-epsilon; 5 μM): 80%
- remaining binding at 10 µM (IKK-epsilon; 10 μM): 100%
- remaining binding at 5 µM (ZAP70; 5 μM): 100%
- remaining binding at 10 µM (ZAP70; 10 μM): 99%
